Measured values: patent US5208344A, “Naphthalenepropionic acid derivatives as anti-inflammatory/antiallergic agents” (American Home Products Corporation, priority 1991, dated 1993)

How the values were obtained:
5-lipoxygenase = molecular target: T1, 5-lipoxygenase (Homo sapiens, UniProt P09917); assay: inhibition of 5-lipoxygenase in human whole blood (LTB4); type: cell-based; conditions: human whole blood
T1 construct: Blood is obtained in 50-100 ml quantities from male donors; endogenous in cells; host or cells: human whole blood (leukocytes) from male donors
T1 sequence (P09917 1-674): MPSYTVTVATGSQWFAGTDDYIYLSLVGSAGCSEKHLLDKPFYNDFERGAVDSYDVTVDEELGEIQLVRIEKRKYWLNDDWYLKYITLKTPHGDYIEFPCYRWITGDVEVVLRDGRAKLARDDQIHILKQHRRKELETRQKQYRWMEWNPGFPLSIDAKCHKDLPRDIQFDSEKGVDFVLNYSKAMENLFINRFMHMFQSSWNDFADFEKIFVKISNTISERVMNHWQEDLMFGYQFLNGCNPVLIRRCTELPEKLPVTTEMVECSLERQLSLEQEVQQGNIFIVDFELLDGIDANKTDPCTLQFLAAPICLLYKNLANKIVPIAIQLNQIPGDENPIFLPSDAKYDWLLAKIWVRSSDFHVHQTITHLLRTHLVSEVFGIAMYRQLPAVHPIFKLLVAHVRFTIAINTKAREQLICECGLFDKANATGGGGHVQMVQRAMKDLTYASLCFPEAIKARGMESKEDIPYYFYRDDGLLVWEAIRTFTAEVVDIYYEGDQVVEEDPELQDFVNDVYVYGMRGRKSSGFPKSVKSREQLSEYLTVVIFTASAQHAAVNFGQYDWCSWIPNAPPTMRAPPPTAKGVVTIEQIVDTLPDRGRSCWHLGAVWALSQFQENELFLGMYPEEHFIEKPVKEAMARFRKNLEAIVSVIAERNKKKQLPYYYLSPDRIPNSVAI
Procedure: The assay of this Example measures the ability of the compounds tested to inhibit 5-lipxygenase in human whole blood.
Blood is obtained in 50-100 ml quantities from male donors. White blood cell counts and differentials are made. Two ml of blood are placed in a 15 ml polypropylene test tube. Compounds are solubilized in dimethylsulfoxide and diluted 1:10 in 10% bovine serum albumin in phosphate buffered saline, pH 7.4 resulting in a final dimethylsulfoxide concentration of 0.1% in the blood. Then, compounds are added to the blood in a shaking water bath at 37° C. for 10 minutes prior to the addition of 30 μM calcium ionophore (A23187; Sigma). After ionophore administration, whole blood samples are mixed and incubated for 20 minutes at 37° C. in a shaking water bath. Incubation is terminated by placing samples in an ice bath and immediately adding ethylene glycol-bis-(β-aminoethyl ether)-N,N,N',N'-tetraacetic acid (10 mM). Samples are mixed and centrifuged at 1200×g for 15 minutes at 4° C. Preparation of samples for evaluation by RIA or ELISA is carried out by the following protocol. Plasma is removed from sample tubes, placed in 15 ml polypropylene test tubes containing 8 ml methanol, and then vortexed to precipitate protein. Samples are stored at -70° C. overnight. The next day, samples are centrifuged at 200×g for 15 minutes at 4° C. to pellet the precipitate. Samples are dried in a Savant speed vac concentrator, reconstituted to original volume with ice cold RIA or ELISA buffer, and stored at -70° C. until assayed. The assay for eicosanoids (LTB4, TxB2, and PGE2) is performed as described by the manufacturer of the [^3 H]-RIA kit or ELISA kit (LTB4 -Amersham, TxB2 and PGE2 - Caymen Chemical).
The total eicosanoid level in 2 ml of blood is calculated and reported as ng/10^6 neutrophils. Significance is determined by a one-way analysis of variance with least significant difference (LSD) comparisons to control (p≤0.05) and IC50 's (μM) are determined by regression analysis (Finney, 1978). Drug effects are expressed as percent change form control values.
Compounds tested in vitro are solubilized in dimethylsulfoxide and diluted 1:10 in 10% bovine serum albumin in phosphate buffer saline resulting in a final dimethylsulfoxide concentration of 0.1% in the blood.

LTD4 = molecular target: T2, LTD4 (Cavia porcellus, UniProt Q2NNR5); assay: LTD4 antagonist activity in isolated guinea pig trachea; type: cell-based; conditions: 1 × 10^-5 M
T2 construct: isolated guinea pig trachea; from tissue; host or cells: guinea pig tracheal rings
T2 sequence (Q2NNR5 1-340): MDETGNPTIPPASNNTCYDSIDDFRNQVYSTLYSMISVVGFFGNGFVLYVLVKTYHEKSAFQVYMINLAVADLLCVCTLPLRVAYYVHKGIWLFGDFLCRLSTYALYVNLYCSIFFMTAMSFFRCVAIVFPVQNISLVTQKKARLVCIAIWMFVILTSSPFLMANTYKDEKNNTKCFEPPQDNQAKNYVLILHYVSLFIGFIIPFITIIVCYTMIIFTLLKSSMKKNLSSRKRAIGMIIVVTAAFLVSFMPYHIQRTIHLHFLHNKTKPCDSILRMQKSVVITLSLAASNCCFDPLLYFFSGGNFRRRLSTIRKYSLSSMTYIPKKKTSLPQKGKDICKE
Procedure: The LTD4 antagonist activity of the compounds of the invention is assessed in the in vitro isolated guinea pig trachea assay. Male Hartley guinea pigs (350-400 g) are euthanized by a blow to the head, the neck is opened and the trachea removed. The trachea is maintained in aerated physiological salt solution, cleared of connective tissue and fat and cut into rings approximately 2 mm in width (usually containing two cartilaginous segments per ring). Two pieces of silk suture are then passed through the lumen of the tracheal ring and are tied around the cartilage, one on each side of the trachealis muscle. The tracheal ring is suspended between a glass hook and a force displacement transducer in a 10 ml organ bath for measurement of isometric tension. Tissues are maintained at 37° C. in aerated ([…] /5% CO2) physiological salt solution of the following composition: […] The tracheal rings are maintained at 2 g resting tension and equilibrated for 45 minutes (with frequence washing and readjustment of resting tension). The tracheal rings are first contracted by the addition of carbachol (3×10^-6 M), to determine tissue responsiveness and establish a reference contraction. On attainment of a stable level of contraction (approximately 30 minutes), the tissues are washed several times until baseline tension has been restored and the re-equilibrated for 30 minutes. The tissues are then incubated for 45 minutes with a test antagonist (either 1×10^-6 M or 1×10^-5 M) or 10 μl of an appropriate solvent control (control, non-treated). One tissue in each group serves as the control. Twenty minutes prior to the construction of the LTD4 cumulative concentration-response curve, L-[…]×10^-2 M final bath concentration) is added to inhibit bioconversion of LTD4 to LTE4. Only one LTD4 concentration-response curve is constructed in each tissue. All responses to LTD4 in an individual tissue are measured as a percentage of the reference contraction of that tissue to carbachol. LTD4 antagonist activity is determined by comparison of the concentration response curves of LTD4 in the presence and absence of antagonist. Assessment of the relative rightward shift of the antagonist treated curve relative to the solvent (control) treated tissue is calculated as a concentration ratio (Eq. A) and used in subsequent calculations to derive an antagonist pKB value (Eqs. B and C). In the vent that the maximum response to LTD4 is depressed, the EC50 for that particular curve is determined, an "apparent" pKB reported, and the compound reported as "not-competitive." [formula] If a compound is found to be active and/or depress the maximal response to LTD4, then a range of concentrations of the test compound should be used generating multiple concentration ratios which would than be used to perform a Schild analysis, and determination of a pA2 value where appropriate.

carrageenan paw edema = assay: rat carrageenan paw edema assay; type: in vivo; conditions: Rattus norvegicus, po, 3 h, read-out: Oral ED50 (95% C.L.)
Procedure: The compounds of the invention are further tested in the rat carrageenan paw edema assay to determine their ability to inhibit the acute inflammatory response.
140-180 gm male Sprague-Dawley rats, in groups of 6 animals are injected subcutaneously in the right paw with 0.1 ml of 1% carrageenan at zero time. Mercury plethysmographic readings (ml) of the paw are made at zero time and 3 hours later. Test compounds are suspended or dissolved in 0.5% methylcellulose and given perorally 1 hour prior to carrageenan administration.
The increase in paw volume (edema in ml.) produced by the carrageenan is measured. […] Unpaired Student's t-test is used to determine statistical significance.

C[C@H](C(=O)N(C)O)c1ccc2cc(OCc3ccccn3)ccc2c1 [Example 44, S-(+)-N-Hydroxy-α, N-diomethyl-6-(2-pyridinylmethoxy)-2-naphthaleneacetamide]
inhibition at 25 µM (5-lipoxygenase): 86%
IC50 (5-lipoxygenase): 2000 nM
Kb (LTD4): 1580 nM

CC(=O)Oc1ccccc1C(=O)O [Aspirin, reference compound]
ED50 (carrageenan paw edema): 145 mg/kg

C[C@H](C(=O)N(C)O)c1ccc2cc(OCc3nc4ccccc4n3C)ccc2c1 [Example 45, S-(+)-N-Hydroxy-α,N-dimethyl-6-[(1-methyl-1H-benzimidazol-2-yl)methoxy]-2-naphthaleneacetamide]
inhibition at 25 µM (5-lipoxygenase): 75%
IC50 (5-lipoxygenase): 1100 nM
Kb (LTD4): 200 nM

CC(NC(=O)NO)c1ccc2cc(OCc3csc(-c4ccccc4)n3)ccc2c1 (single isomer, unassigned; (-)) [Example 36, (-)-N-Hydroxy-N'-[1-[6-(2-phenyl-4-thiazolyl)methoxy-2-naphthalenyl]ethyl]urea]
inhibition at 25 µM (5-lipoxygenase): 86%
IC50 (5-lipoxygenase): 13500 nM
Kb (LTD4): > 10000 nM

C[C@H](NC(=O)NO)c1ccc2cc(OCc3nc4ccccc4s3)ccc2c1 [Example 38, S-(-)-N-[1-[6-(2-Benzothiazolylmethoxy)-2-naphthalenyl]ethyl]-N'-hydroxyurea]
inhibition at 25 µM (5-lipoxygenase): 52%
IC50 (5-lipoxygenase): 34400 nM
Kb (LTD4): > 6310 nM

C[C@H](C(=O)N(C)O)c1ccc2cc(OCc3csc(-c4ccccc4)n3)ccc2c1 [Example 39, S(+)-N-Hydroxy-α,N-dimethyl-[6-(2-phenyl-4-thiazolyl)methoxy]-2-naphthaleneacetamide]
inhibition at 25 µM (5-lipoxygenase): 91%
IC50 (5-lipoxygenase): 6900 nM
Kb (LTD4): 10000 nM

C[C@H](C(=O)N(C)O)c1ccc2cc(OCc3nc4ccccc4o3)ccc2c1 [Example 47, S-N-Hydroxy-α, N-dimethyl-6-(2-benzoxazolylmethoxy)-2-naphthaleneacetamide]
inhibition at 25 µM (5-lipoxygenase): 84%
IC50 (5-lipoxygenase): 2300 nM
Kb (LTD4): 501 nM

C[C@H](C(=O)N(C)O)c1ccc2cc(OCc3nc4ccccc4s3)ccc2c1 [Example 41, S-(+)-N-Hydroxy-α,N-dimethyl-6-(2-benzothiazolylmethoxy)-2-naphthaleneacetamideone tenth hydrate]
inhibition at 25 µM (5-lipoxygenase): 83%
IC50 (5-lipoxygenase): 11400 nM
Kb (LTD4): 398 nM
